Test results taken from publication PMC9569649, “Naked and Decorated Nanoparticles Containing H2S-Releasing Doxorubicin: Preparation, Characterization and Assessment of Their Antitumoral Efficiency on Various Resistant Tumor Cells” (International Journal of Molecular Sciences, 2022).
Converted amounts (≈) assume the structure as drawn. Counter-ions that a name gives are not always drawn. Like-named read-outs stand apart in the source and are kept apart here.

Key:
K7M2 tumor = tested on: K7M2 tumor; design: method as in PMID 31047947; details: cited from earlier work
JC cells [1] = experiment: Cell viability (ATPLite); format: cell-based, murine; details: JC (resistant); 72 h, 5 µM
Procedure: (§1) In each of the following experimental sets, cells were incubated with specific dilutions of NPs to reach a final concentration of 5 μM H2S-DOXO, or with 5 μM DOXO or H2S-DOXO, as reference. Samples under study were: free DOXO, free H2S-DOXO, NP-H2S-DOXO 3% PVP, and HA-NP-CTAB-H2S-DOXO. Viability. 1 × 10^5 cells were seeded in 96 well plates and incubated for 72 h with DOXO, H2S-DOXO or the different NPs. Cell viability was evaluated using the ATPLite kit (PerkinElmer, Waltham, MA), as per manufacturer’s instructions, using a Synergy-HTX 96-well reader (Bio-Tek Instruments, Winooski, VT). The relative luminescence units (RLUs) of the untreated cells were considered 100%; the RLUs of the other experimental conditions were expressed as percentage versus untreated cells.

K7M2 cells [2] = experiment: Cell viability (ATPLite); format: cell-based, murine; details: K7M2 (resistant); 72 h, 5 µM
Procedure: as §1

U-2OS/DX580 cells [3] = experiment: Cell viability (ATPLite); format: cell-based, human; details: U-2OS/DX580 (resistant); 72 h, 5 µM
Procedure: as §1

MDA-MB-231 cells [4] = experiment: Cell viability (ATPLite); format: cell-based, human; details: MDA-MB-231 (resistant); 72 h, 5 µM
Procedure: as §1

DU-145 cells = details: cited from earlier work
JC cells [5] = experiment: Acute cytotoxicity (release of LDH); format: cell-based, murine; details: JC (resistant); 24 h, 5 µM
Procedure: (§2) In each of the following experimental sets, cells were incubated with specific dilutions of NPs to reach a final concentration of 5 μM H2S-DOXO, or with 5 μM DOXO or H2S-DOXO, as reference. Samples under study were: free DOXO, free H2S-DOXO, NP-H2S-DOXO 3% PVP, and HA-NP-CTAB-H2S-DOXO. Acute cytotoxicity. Culture medium from 2 × 10^6 cellule was centrifuged at 12,000 g for 15 min to pellet cell debris, while cells were washed with PBS twice, detached with trypsin/EDTA (0.05/0.02% v/v), rinsed in 0.2 mL of 82.3 mM triethanolamine phosphate-HCl (pH 7.6), and sonicated in ice with 10 s (100 W, Sonicator Labsonic); 5 μL of cell lysate was used to measure the intracellular protein content (BCA1 kit). The activity of extracellular lactate dehydrogenase (LDH), considered as an index of DOXO acute cell damage, was measured on 50 μL of cell culture medium, incubated at 37 °C with […]. The same assay was performed on 5 μL of cell lysate, to measure intracellular LDH. The kinetics of NADH oxidation was followed for 6 min measuring the absorbance at 340 nm with a Synergy HTX 96-well reader (Bio-Tek Instruments). The kinetics was linear overtime. Results were expressed as % extracellular LDH/total (extracellular+intracellular) LDH.

K7M2 cells [6] = experiment: Acute cytotoxicity (release of LDH); format: cell-based, murine; details: K7M2 (resistant); 24 h, 5 µM
Procedure: as §2

U-2OS/DX580 cells [7] = experiment: Acute cytotoxicity (release of LDH); format: cell-based, human; details: U-2OS/DX580 (resistant); 24 h, 5 µM
Procedure: as §2

U-2OS cells [8] = experiment: Acute cytotoxicity (release of LDH); format: cell-based, human; details: U-2OS (sensitive); 24 h, 5 µM
Procedure: as §2

MDA-MB-231 cells [9] = experiment: Acute cytotoxicity (release of LDH); format: cell-based, human; details: MDA-MB-231 (resistant); 24 h, 5 µM
Procedure: as §2

MCF-7 cells [10] = experiment: Acute cytotoxicity (release of LDH); format: cell-based, human; details: MCF-7 (sensitive); 24 h, 5 µM
Procedure: as §2

[11] = H2S-DOXO stability in the presence of microemulsion ingredients (RP-HPLC); format: physicochemical; details: water/acetonitrile 60/40 v/v; for Residual Concentration % t24: 24 h
Procedure: The chemical stability of H2S-DOXO in water/acetonitrile 60/40 v/v in the presence of µE ingredients, at the same ratio (w/w) used in the µE, was tested to select the suitable ingredients and to ensure the integrity of H2S-DOXO into the formulation. In Table 3, the stability at t0 and t24 h (t24) is expressed as percent of residual concentration in the presence of ingredients compared with that without ingredients at t0 (100%).
H2S-DOXO stability in water/acetonitrile (60/40 v/v ratio) in the presence of NaTC, NaGC, lecithin (phosphatidylcoline 95–98%), ST, CTAB, and Cremophor®RH60 was determined at t0 and after 24 h (t24) by RP-HPLC comparing the drug concentration with that in water/acetonitrile solution at t0, assuming it as 100%.

[12] = tested on: DU-145 prostate cancer cell line; design: method as in PMID 29607467; details: androgen-independent, DOXO-resistant DU-145; cited from earlier work
U-2OS cells [13] = experiment: Cell viability (ATPLite); format: cell-based, human; details: U-2OS (sensitive); 72 h, 5 µM
Procedure: as §1

MCF-7 cells [14] = experiment: Cell viability (ATPLite); format: cell-based, human; details: MCF-7 (sensitive); 72 h, 5 µM
Procedure: as §1

[15] = H2S-DOXO stability in solvents (RP-HPLC); format: physicochemical; details: 30-day storage at 4 °C, vs t0 (100%)
Procedure: The chemical stability of H2S-DOXO in water/acetonitrile 60/40 v/v (mobile phase for HPLC analysis) and in methanol (solvent used for extraction from NPs to determining EE%) was tested by RP-HPLC after 30-day storage (t30). In Table 2, the stability was expressed as a percentage of residual concentration at t30 compared with the concentration at t0 (100%).
H2S-DOXO stability in water/acetonitrile (60/40 v/v ratio) and methanol was determined after 30-day (t30) storage at 4 °C following the drug concentration over time by RP-HPLC and comparing it with the concentration at t0, assuming it as 100%.

[16] = design: method as in PMID 23973213; details: human serum; pseudo-first-order kinetics; cited from earlier work
[17] = In vitro drug release (dialysis method); format: physicochemical; details: PBS pH 7.4, 37 °C, reference: 20% propylene glycol aqueous solution
Procedure: In vitro drug release. Release of H2S-DOXO from NPs was evaluated using the dialysis method. An aliquot of HA-NP-CTAB-H2S-DOXO was placed in a dialysis bag, and the dialysis bag, sealed at the ends, was immersed into 40 mL of phosphate buffered saline (PBS, pH 7.4) at 37 °C stirring at 100 rpm. At predetermined time intervals, 1 mL PBS was withdrawn and replaced with an equal volume of fresh PBS. Release was monitored for 5 h. The overtime released H2S-DOXO was analyzed by RP-HPLC. As a reference, a 20% propylene glycol aqueous solution of H2S-DOXO was used.

[18] = H2S-DOXO solubility in aqueous and organic solvent; format: physicochemical; details: room temperature (22–23 °C)
Procedure: The solubility of H2S-DOXO in water/acetonitrile (60/40 v/v ratio), methanol, 0.1 M pH 7.2 phosphate buffer, propylene glycol, and benzyl alcohol was determined as follows: an excess of H2S-DOXO was added to the organic or aqueous solution (1 mL); after 2-h equilibration at room temperature (22–23 °C) in a sealed vial under 600 rpm magnetic stirring, the suspension was centrifuged at 1397× g for 10 min, and the supernatant solution analyzed by RP-HPLC. The time needed to reach equilibrium solubility was determined by analyzing samples of the equilibrating solution at different time points to establish constant drug solubility.

[19] = 3-week injection, nude mice with subcutaneous DU-145 cells

Structure (SMILES): COc1cccc2c1C(=O)c1c(O)c3c(c(O)c1C2=O)C[C@@](O)(C(=O)CO)C[C@@H]3O[C@H]1C[C@H](N)[C@H](O)[C@H](C)O1 [DOXO, doxorubicin hydrochloride]
- tumor growth (K7M2 tumor; K7M2 tumors (CD44- and Pgp-overexpressing)): neither DOXO nor Caelyx® reduced the growth of these tumors
- apoptosis / caspase-3 activation in the tumor (K7M2 tumor; K7M2 tumors): nor did they induce apoptosis in the tumor
- subacute toxicity, reduced cell viability (JC cells [1]): ineffective
- subacute toxicity, reduced cell viability (K7M2 cells [2]): ineffective
- subacute toxicity, reduced cell viability (U-2OS/DX580 cells [3]): ineffective
- subacute toxicity, reduced cell viability (MDA-MB-231 cells [4]): ineffective
- tolerability / safety profile (DU-145 cells; mouse, in vivo, sc): associated with weight loss and cardiotoxicity
- acute toxicity, release of LDH (JC cells [5]): devoid of any cytotoxic effects
- acute toxicity, release of LDH (K7M2 cells [6]): devoid of any cytotoxic effects
- acute toxicity, release of LDH (U-2OS/DX580 cells [7]): devoid of any cytotoxic effects
- acute toxicity, release of LDH (U-2OS cells [8]): comparable
- acute toxicity, release of LDH (MDA-MB-231 cells [9]): devoid of any cytotoxic effects
- acute toxicity, release of LDH (MCF-7 cells [10]): comparable

Structure (SMILES): COc1cccc2c1C(=O)c1c(O)c3c(c(O)c1C2=O)C[C@@](O)(C(=O)COC(=O)c1ccc(-c2ssc(=S)c2-c2ccccc2)cc1)C[C@@H]3O[C@H]1C[C@H](N)[C@H](O)[C@H](C)O1 [H2S-DOXO, doxorubicin 14-[4-(4-phenyl-5-thioxo-5H-[1,2]dithiol-3-yl)]-benzoate]
- Residual Concentration % t24 ([11]; in presence of CTAB): 100%
- Residual Concentration % t0 ([11]; in presence of CTAB): 100%
- Residual Concentration % t24 ([11]; in presence of Cremophor RH60): 0%
- Residual Concentration % t0 ([11]; in presence of Cremophor RH60): 5%
- Residual Concentration % t24 ([11]; in presence of Epikuron 200): 100%
- Residual Concentration % t0 ([11]; in presence of Epikuron 200): 100%
- Residual Concentration % t24 ([11]; in presence of NaGC): 98%
- Residual Concentration % t0 ([11]; in presence of NaGC): 100%
- Residual Concentration % t24 ([11]; in presence of NaTC): 0%
- Residual Concentration % t0 ([11]; in presence of NaTC): 34%
- Residual Concentration % t24 ([11]; in presence of ST): 14%
- Residual Concentration % t0 ([11]; in presence of ST): 44%
- subacute toxicity, reduced cell viability (JC cells [1]): significantly more effective than DOXO
- subacute toxicity, reduced cell viability (K7M2 cells [2]): significantly more effective than DOXO
- cytotoxicity [12]: high cytotoxicity
- intracellular accumulation [12]: good intracellular accumulation
- subacute toxicity, reduced cell viability (U-2OS/DX580 cells [3]): significantly more effective than DOXO
- subacute toxicity, reduced cell viability (U-2OS cells [13]): did not offer any further advantage compared to DOXO
- subacute toxicity, reduced cell viability (MDA-MB-231 cells [4]): significantly more effective than DOXO
- subacute toxicity, reduced cell viability (MCF-7 cells [14]): did not offer any further advantage compared to DOXO
- percentage of apoptotic cells (DU-145 cells; [19]): an increase in the percentage of apoptotic cells
- reduction in tumor volume (DU-145 cells; [19]): 60%
- tolerability / safety profile (DU-145 cells; nude mice with subcutaneous DU-145 cells): well tolerated and had a better safety profile
- acute toxicity, release of LDH (JC cells [5]): induced a significant release of LDH
- acute toxicity, release of LDH (K7M2 cells [6]): induced a significant release of LDH
- acute toxicity, release of LDH (U-2OS/DX580 cells [7]): induced a significant release of LDH
- acute toxicity, release of LDH (U-2OS cells [8]): comparable
- acute toxicity, release of LDH (MDA-MB-231 cells [9]): induced a significant release of LDH
- acute toxicity, release of LDH (MCF-7 cells [10]): comparable
- Residual Concentration % t30 ([15]; methanol): 98.7%
- Residual Concentration % t30 ([15]; water/acetonitrile (60/40 v/v)): 97.3%
- t1/2 of hydrolysis [16]: 2.8 h
- H2S-DOXO release in 5 h [17]: ~100%
- Solubility ([18]; benzyl alcohol): 1400 ± 700 µg/mL (≈ 1.64 mM)
- Solubility ([18]; methanol): 3820 ± 300 µg/mL (≈ 4.46 mM)
- Solubility ([18]; pH 7.2 phosphate buffer (0.1 M)): 30 ± 10 µg/mL (≈ 0.035 mM)
- Solubility ([18]; propylene glycol): 2830 ± 300 µg/mL (≈ 3.31 mM)
- Solubility ([18]; water/acetonitrile (60/40 v/v)): 3400 ± 500 µg/mL (≈ 3.97 mM)
